We go through one compound from US6524603B1, “Process and composition for the antiparasitic treatment of the surroundings of animals” (priority 1996, dated 2003).

In the experiment the test system is darkling beetles (Alphitobius diaperinus). Kind of experiment: Poultry house litter treatment, darkling beetle population monitored with 9 traps. In kind it is in vivo. The note with it: water-dispersible granules 80% compound (A), 150 g/ha; during the 10th week (end of a rearing cycle). As for the experimental part:
The treatment took place on the clean litter before the poultry was installed therein. The clean litter was essentially composed of straw.
On the day after the treatment, a group of chicks aged 1 to 2 days was installed in the rearing house at the rate of approximately 7 animals per m^2.
The change in the population of darkling beetles (Alphitobius diaperinus) in the litter was regularly monitored using 9 homogeneously distributed traps. Measurements were carried out each week from the second week after the treatment until rearing was halted.
The total population of darkling beetles in the 9 traps of the treated poultry house varied between 11 and 96 until the 9th week after treatment whereas, in a similar but untreated poultry house, the population of darkling beetles (larvae and adults) oscillated between 1000 and 3000 at each counting point.

Consider `N#Cc1nn(-c2c(Cl)cc(C(F)(F)F)cc2Cl)c(N)c1[S+]([O-])C(F)(F)F` (stereo not shown) [compound (A), 1-[2,6-Cl2-4-CF3phenyl]-3-CN-4-[SO—CF3]-5-NH2pyrazole], for which the “control of darkling beetles” value was determined as 86%.
